Results reported in publication PMC10783051 (Microbiology Spectrum, 2023).
Entries after “also recorded” stand apart in the source; their conditions may differ.

Key:
[1] = confrontation zone between B. velezensis GA1 and S. venezuelae ATCC 10712 on REM solid medium (agar extract); settings: Streptomyces venezuelae ATCC 10712 / Bacillus velezensis GA1, 26°C, up to 3 days
[2] = Sv cultures grown on gelified GA1 ΔbaeJ-mlnA-dfnA CFS; settings: Streptomyces venezuelae, 28°C, up to 3 days
Streptomyces [3] = settings: cited from earlier work
[4] = rhizosphere extracts (agar near tomato roots co-inoculated with Bv and Sv, Hoagland solid medium); settings: Streptomyces venezuelae ATCC 10712 / Bacillus velezensis GA1-GFP on tomato (Solanum lycopersicum var. Moneymaker), 22°C, up to 7 days
[5] = Sv cell-free supernatant (CFS); settings: Streptomyces venezuelae ATCC 10712, 30°C, up to 24 h; time course up to 48 h
[6] = tested on: S. venezuelae supernatant (secreted enzymes); assay: In vitro degradation of CLPs by S. venezuelae cell-free supernatant; format: in vitro ADME, Streptomyces venezuelae ATCC 10712; settings: shaking 180 rpm; for degradation of Pseudomonas CLPs by Sv CFS: Pseudomonas CFS (CAA medium) supplemented with 4% (vol/vol) Sv CFS, 24 h at 30°C, UPLC-MS and MS/MS, degraded to different degrees
Experimental: S. venezuelae cultures were performed on ISP2 medium at 28°C (yeast extract 4 g/L, malt extract 10 g/L, glucose 4 g/L, agar 20 g/L; pH 7.3). On 12 × 12 cm Petri square plates, three stripes (1 × 12 cm) of spores were inoculated with a cotton swab [40 µL of spores suspension (10^7 spores/mL) each], spaced by 3 cm each. The plates were left for 7 days of incubation. Next, the agar media was recovered and placed in Falcon tubes at −20°C for 24 h. Then, the agar media were defrosted at room temperature and centrifuged (8,000 rpm for 20 min). Finally, the supernatant leaked from the agar was collected, filtered sterilized (0.22-µm pore size filters) and stored at −20°C until further use. The heat-treated Sv supernatant was generated by incubating an aliquot of the cell-free supernatant of Sv for 10 min at 98°C. The supernatant was then filtered (0.22-µm pore size filters) and stored at −20°C until further use.
[…] Then the solutions were incubated for 24 h at 30°C with continuous shaking (180 rpm). Next, the solution were centrifuged (1 min at 10,000 rpm), filtered (0.22-µm pore size filters), and analyzed by UPLC-MS.
The degradation assays of Pseudomonas CLPs were performed using CFS generated as described above. They were supplemented by 4% (vol/vol) of S. venezuelae CFS prepared as described previously. Next, the solutions were incubated for 24 h at 30°C with continuous shaking (180 rpm). Then, the solution were centrifuged (1 min at 10,000 rpm), filtered (0.22-µm pore size filters), and analyzed by UPLC-MS.
For the CLP degradation kinetic experiments, surfactin, iturin, and fengycin solutions supplemented with S. venezuelae supernatant were prepared following the same protocol. Twenty microliters of solution was sampled at each time point and directly mixed with 80 µL of acetonitrile to stop enzymatic degradation. Finally, they were stored at −20°C until analysis by UPLC-MS.
All UPLC-MS analyses were performed using an Agilent 1290 Infinity II coupled with a diode array detector and a mass detector (Jet Stream ESI-Q-TOF 6530) in positive mode with the parameters set up as follows: capillary voltage of 3.5 kV, nebulizer pressure of 35 lb/in^2, drying gas of 8 L/min, drying gas temperature of 300°C, flow rate of sheath gas of 11 L/min, sheath gas temperature of 350°C, fragmentor voltage of 175 V, skimmer voltage of 65 V, and octopole radiofrequency of 750 V. Accurate mass spectra were recorded in the m/z range of 300–1,700. For untargeted MS/MS, we used the same MS1 parameters as described. We added MS2 untargeted acquisition mode with the parameters as follows: MS/MS range 50–1,700 m/z; MS/MS scan rate 3 spectra/s; isolation width MS/MS medium (approx. 4 AMU), Decision Engine Native; fixed collision energies of 25 and 40 V for surfactin, 50 V for iturin, and 60 V for fengycin experiments; precursor selection: three for the surfactin experiment, four for the iturin and fengycin experiments, threshold 1,500 (Abs), isotope model common, active exclusion after two spectra and release after 0.5 min, sorting the precursors by charge state then abundance (charge state preference 1). For targeted MS/MS, we used the same MS1 parameters MS/MS range of 50–1,700 m/z or 50–3,200 (when required for Pseudomonas CLPs with mass >1,700 Da), MS/MS scan rate 3 spectra/s, isolation width MS/MS narrow (approx. 1.3 amu), and fixed collision energies 20, 40, and 60V. In all experiments, a C18 Acquity UPLC ethylene bridged hybrid column (2.1 mm × 50 mm × 1.7 µm; Waters Corporation, Milford, MA, USA) was used at a flow rate of 0.6 mL/min and a temperature of 40°C. The injection volume was 20 µL, and the diode array detector scanned a wavelength spectrum between 190 and 600 nm. Unless otherwise mentioned, a gradient of acidified water (0.1% formic acid) (solvent A) and of acidified acetonitrile (0.1% formic acid) (solvent B) was used as mobile phase with a constant flow rate of 0.6 mL/min, starting at 10% B and rising to 100% B in 20 min. […]

Streptomyces [7] = settings: cited from earlier work
Description: Therefore, we hypothesized that Sv may catabolize those exogenous CLPs and use them as nutritional sources. […] (Fig. 2E and F). Extraction of the me ...

[8] = tested on: Streptomyces venezuelae ATCC 10712; assay: Confrontation assay B. velezensis GA1 / S. venezuelae on REM plate, UPLC-MS metabolite profiling of the agar; settings: gelified REM, 3 days at 26°C
Experimental: Confrontation assays were performed on square Petri dishes (12 × 12 cm) with 40 mL of REM solid medium at 26°C (REM supplemented with 14 g/L of agar).
S. venezuelae ATCC 10712 was inoculated as stripes (1 × 12 cm) in the middle of the plate with 40 µL of spore suspension (10^7 spores/mL) and spread with a cotton swab. Next, B. velezensis GA1 cells were collected from fresh precultures as described and adjusted to OD600 nm 0.1. Then, 5 µL of B. velezensis GA1 suspension was spotted at 1 cm of the Streptomyces line. Control plates were done following the same procedure without the inoculation of either Bacillus or Streptomyces. Plates were then incubated for 3 days at 26°C in the dark. Pictures of the plates were then captured using a CoolPix camera (NIKKOR ×60 wide optical zoom extra-low dispersion vibration reduction 4.3–258.0 mm 1:33 to 6.5).
The extraction of the metabolites from the agar was performed as follows. For the confrontation experiment, we precisely sampled the area of agar (2 × 1 cm) near the colony of Bacillus or Streptomyces (the confrontation zone is 1 cm wide) with standardized plugs. For the in planta, we sampled the agar area (1 × 1 cm) near the tomato roots. In both cases, the agar samples were transferred to Eppendorf tubes and placed for 24 h at −20°C. Then, the agar was thawed at room temperature and centrifuged for 10 min at 13,000 rpm. The supernatants were then collected and filtered (0.22-µm pore size filters) before UPLC-MS analysis.
All UPLC-MS analyses were performed using an Agilent 1290 Infinity II coupled with a diode array detector and a mass detector (Jet Stream ESI-Q-TOF 6530) in positive mode with the parameters set up as follows: capillary voltage of 3.5 kV, nebulizer pressure of 35 lb/in^2, drying gas of 8 L/min, drying gas temperature of 300°C, flow rate of sheath gas of 11 L/min, sheath gas temperature of 350°C, fragmentor voltage of 175 V, skimmer voltage of 65 V, and octopole radiofrequency of 750 V. Accurate mass spectra were recorded in the m/z range of 300–1,700. For untargeted MS/MS, we used the same MS1 parameters as described. We added MS2 untargeted acquisition mode with the parameters as follows: MS/MS range 50–1,700 m/z; MS/MS scan rate 3 spectra/s; isolation width MS/MS medium (approx. 4 AMU), Decision Engine Native; fixed collision energies of 25 and 40 V for surfactin, 50 V for iturin, and 60 V for fengycin experiments; precursor selection: three for the surfactin experiment, four for the iturin and fengycin experiments, threshold 1,500 (Abs), isotope model common, active exclusion after two spectra and release after 0.5 min, sorting the precursors by charge state then abundance (charge state preference 1). For targeted MS/MS, we used the same MS1 parameters MS/MS range of 50–1,700 m/z or 50–3,200 (when required for Pseudomonas CLPs with mass >1,700 Da), MS/MS scan rate 3 spectra/s, isolation width MS/MS narrow (approx. 1.3 amu), and fixed collision energies 20, 40, and 60V. In all experiments, a C18 Acquity UPLC ethylene bridged hybrid column (2.1 mm × 50 mm × 1.7 µm; Waters Corporation, Milford, MA, USA) was used at a flow rate of 0.6 mL/min and a temperature of 40°C. The injection volume was 20 µL, and the diode array detector scanned a wavelength spectrum between 190 and 600 nm. Unless otherwise mentioned, a gradient of acidified water (0.1% formic acid) (solvent A) and of acidified acetonitrile (0.1% formic acid) (solvent B) was used as mobile phase with a constant flow rate of 0.6 mL/min, starting at 10% B and rising to 100% B in 20 min. Solvent B was kept at 100% for 4 min before going back to the initial ratio. MassHunter Workstation (version 10.0) and ChemStation software were used for data collection and analysis. For untargeted analysis of iturin and fengycin degradation products, we used the same solvent and flow rate, starting at 10% B to 20% in 2 min, then rising to 50% B at 14 min and 100% B at 25 min, followed by 100% B and 5 at 10% B at 6 min.

With Fa Glu Leu Leu Val Asp Leu Leu the cleaved bond [1] was “Fa-E”, the fragment found [1] was “Linear surfactin” and the fragment found [2] was “Linear surfactin; also recorded: ELLVDLL; also recorded: LLVDLL”. For the same molecule, the fragment found (Streptomyces [3]) was “linear surfactin”, the fragment found [4] was “linear surfactins; also recorded: ELLVDLL” and the cleaved bond [5] was “Fa-E and E-L and L-L and L-V”. The fragment found [5] was “Linear surfactin, first_seen and FaEL”.
In the case of “VSLVVQLVDhbTIHseDabK (lariat or depsi) [sessilin, Pseudomonas cyclic lipopeptide, tested in Pseudomonas cell-free supernatant]”, the “degradation of Pseudomonas CLPs by Sv CFS” value [6] is reported as “degraded”.
In the case of macrolactin, the “toxicity toward Streptomyces” value (Streptomyces [7]) is listed as “toxicity”.
With putisolvin the “degradation of Pseudomonas CLPs by Sv CFS” value [6] was “degraded”.
For orfamide, the “degradation of Pseudomonas CLPs by Sv CFS” value [6] was “degraded”.
In the case of difficidin, the “toxicity toward Streptomyces” value (Streptomyces [7]) is listed as “toxicity”.
For xantholisin, the “degradation of Pseudomonas CLPs by Sv CFS” value [6] was “degraded”.
For fengycin, the “degradation of pure Bacillus CLPs by Sv CFS” value ([6]; pure CLPs (100 µM) incubated 24 h at 30°C with 4% (vol/vol) Sv CFS (grown on ISP2, 0.22-µm filtered), UPLC-MS/MS with feature-based molecular networking) was “degrades”, the “shorter CLP fragment detected in the confrontation zone but not in Bv monoculture” value ([8]; UPLC-MS, MS/MS) was “loss of the terminal isoleucine” and the “abundance of the CLP in the confrontation zone compared with monocultures” value ([8]; agar extract of confrontation zone, UPLC-Q-TOF-MS peak areas, three biological replicates) was “decrease in the abundance”.
In the case of `C/C(=C/C=C/C=C/C(C)C(=O)O)NC(=O)CC(O)\C(C)=C/C=C\C=C(C)\C=C\C=C/C=C/CNC(=O)C(O)CC(C)C` (centres unmarked) [bacillaene], the “toxicity toward Streptomyces” value (Streptomyces [7]) is given as “toxicity”.
